Source: US20220030868A1, “FUNGICIDAL HALOMETHYL KETONES AND HYDRATES” (FMC CORPORATION, priority 2018, published 2022)

Legend:
Phakopsora pachyrhizi = experiment: Test A: test suspension sprayed on soybean seedlings one day before inoculation with Phakopsora pachyrhizi spores (Asian soybean rust), visual disease rating; type: in vivo; conditions: 100 = 100% disease control, 0 = no control
Procedure, shortened: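 Soybean seedlings were sprayed to run-off with test suspension (acetone 3% of volume, acetone/water 50/50, 250 ppm PEG400) and inoculated with rust spores one day later. Incubation: 24 h saturated atmosphere at 22° C, then 8 days growth chamber at 22° C; scores 0–100 relative to untreated controls.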

[1] = tested on: Puccinia recondita f. sp. tritici; experiment: Test B: test suspension sprayed on wheat seedlings one day before inoculation with Puccinia recondita f. sp. tritici spores (wheat leaf rust), disease rating; type: in vivo; conditions: 100 = 100% disease control, 0 = no control
Procedure, shortened: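 Wheat seedlings were sprayed to run-off with compound suspended in 50/50 acetone/water containing 250 ppm PEG400, then inoculated with P. recondita f. sp. tritici spores the next day. Plants were held 24 h in saturated air at 20 °C, then 6 days in a growth chamber at 20 °C. Disease control was rated 0–100% relative to controls, with some entries run at 50 or 10 ppm.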

[2] = Phakopsora pachyrhizi, 10 ppm test suspension

Compound | Test A rating (disease control) (Phakopsora pachyrhizi; 10 ppm test suspension) [%] | Test B rating (disease control) ([1]; 10 ppm test suspension) [%] | also measured
CS(=O)(=O)c1nccc(Cc2ccc(OCC3(C(F)(F)F)OCCO3)cc2)n1 [compound 282] | – | – | Test A rating (disease control) (Phakopsora pachyrhizi; 50 ppm test suspension): 0%; Test B rating (disease control) ([1]; 50 ppm test suspension): 0%
CC(C)C(=O)NCc1ccc(OCC2(C(F)(F)F)OCCO2)cc1 [compound 175] | 0 | 0 | –
CCOC(=COc1ccc(CN2CCC(C(=O)OC)C2)cc1)C(F)(F)F (mixture of isomers) [compound 310] | 100 | 0 | –
CN(C)C(=O)c1cnn(Cc2ccc(OCC3(C(F)(F)F)OCCO3)cc2)c1 [compound 198] | 0 | 0 | –
O=C(OCc1ccc(F)c(F)c1)c1cnn(Cc2ccc(OCC3(C(F)(F)F)OCCO3)cc2)c1 [compound 18] | 100 | 0 | –
CCO/C(=C\Oc1ccc(Cn2cc(C#N)cn2)cc1)C(F)(F)F [compound 205] | 0 | 0 | –
CCO/C(=C\Oc1ccc(Cn2ccnc2)cc1)C(F)(F)F [compound 156] | 0 | 0 | –
CCOC(=O)c1cnn(CCc2ccc(OCC3(C(F)(F)F)OCCO3)cc2)c1 [compound 133] | 79 | 0 | –
CCOC(=O)c1ccn(Cc2ccc(OCC3(C(F)(F)F)OCCO3)cc2)n1 [compound 232] | 98 | 0 | –
O=C(NCC(F)(F)F)c1cnc(Cc2ccc(OCC3(C(F)(F)F)OCCO3)cc2)o1 [Compound 257] | 54 | 0 | –
CCOC(=O)c1csc(Cc2ccc(OCC3(C(F)(F)F)OCCO3)cc2)n1 [Compound 137] | 79 | 0 | –
CCOC(=O)c1cnn(C(C)c2ccc(OCC(O)(O)C(F)(F)F)cc2)c1 (stereo not shown) [Compound 35] | 99 | 32 | –
CCOC(=O)c1cnn(Cc2ccc(OCC3(C(F)(F)F)OCCCO3)cc2)c1 [Compound 52] | 99 | 0 | –
CCO/C(=C\Oc1ccc(Cc2nc(C(=O)NCC3CC3)cs2)cc1)C(F)(F)F [compound 130] | 100 | 0 | –
O=C(OCc1ccc(Cl)c(Cl)c1)c1cnn(Cc2ccc(OCC3(C(F)(F)F)OCCO3)cc2)c1 [compound 17] | 100 | 0 | –
CCO/C(=C\Oc1ccc(Cc2ccnc(S(C)(=O)=O)n2)cc1)C(F)(F)F [compound 307] | – | – | Test A rating (disease control) (Phakopsora pachyrhizi; 50 ppm test suspension): 0%; Test B rating (disease control) ([1]; 50 ppm test suspension): 0%
O=C(NCC(F)(F)F)c1cnc(Cc2ccc(OCC3(C(F)(F)F)OCCO3)cc2)s1 [Compound 275] | 0 | 0 | –
CC#CCOC(=O)c1ccn(Cc2ccc(O/C=C(\OCC)C(F)(F)F)cc2)n1 [compound 293] | 100 | 0 | –
O=C(OCc1ccccc1)c1cnn(Cc2ccc(OCC(O)(O)C(F)(F)F)cc2)c1 [Compound 47] | – | – | Test A rating (disease control) (Phakopsora pachyrhizi; 50 ppm test suspension): 100%; Test B rating (disease control) ([1]; 50 ppm test suspension): 95%

Compound | Test A rating (disease control) (Phakopsora pachyrhizi; 10 ppm test suspension) [%] | Test B rating (disease control) ([1]; 10 ppm test suspension) [%] | also measured
CCO/C(=C\Oc1ccc(Cn2cc(Cl)cn2)cc1)C(F)(F)F [compound 180] | 0 | 0 | –
NCc1ccc(OCC2(C(F)(F)F)OCCO2)cc1 [compound 174] | 0 | 0 | –
N#Cc1cnn(Cc2ccc(OCC3(C(F)(F)F)OCCO3)cc2)c1 [compound 209] | 89 | 0 | –
O=C(CC(F)(F)F)NCc1ccc(OCC2(C(F)(F)F)OCCO2)cc1 [compound 212] | 44 | 0 | –
C=CCO/C(=C\Oc1ccc(Cn2cc(C(=O)OCC)cn2)cc1)C(F)(F)F [compound 55] | 0 | 0 | –
OCc1ccc(OCC2(C(F)(F)F)OCCO2)cc1 [compound 178] | 0 | 0 | –
C#CCNC(=O)c1ccc(O/C=C(\OCC)C(F)(F)F)cc1 [compound 102] | 0 | 0 | –
CC(C)COC(=O)NCc1ccc(OCC2(C(F)(F)F)OCCO2)cc1 [compound 112] | 0 | 0 | –
CCO/C(=C\Oc1ccc(Cn2cccn2)cc1)C(F)(F)F [compound 151] | 0 | 0 | –
O=Cc1cccc(OCC(O)(O)C(F)(F)F)c1 [compound 305] | – | – | pest or weed control at 10 ppm (Phakopsora pachyrhizi; [2]): 70%; pest or weed control at 10 ppm ([1]; 10 ppm test suspension): 0%
CCO/C(=C\Oc1ccc(CS(=O)(=O)CC)cc1)C(F)(F)F [compound 62] | 0 | 0 | –
CON(Cc1ccc(OCC2(C(F)(F)F)OCCO2)cc1)C(=O)OC(C)(C)C [compound 238] | 73 | 0 | –
CCO/C(=C\Oc1ccc(Cn2ncnc2C(=O)OC)cc1)C(F)(F)F [Compound 122] | 0 | 0 | –
CON(Cc1ccc(OCC2(C(F)(F)F)OCCO2)cc1)C(=O)C(C)C [compound 235] | 97 | 0 | –
O=[N+]([O-])c1ccc(OCC(O)(O)C(F)(F)F)cc1 [Compound 280] | – | – | Test A rating (disease control) (Phakopsora pachyrhizi; 50 ppm test suspension): 100%; Test B rating (disease control) ([1]; 50 ppm test suspension): 100%
CCOC(=O)C=CCOc1ccc(OCC(O)(O)C(F)(F)F)cc1 [Compound 97] | – | – | Test A rating (disease control) (Phakopsora pachyrhizi; 50 ppm test suspension): 94%; Test B rating (disease control) ([1]; 50 ppm test suspension): 0%
CCO/C(=C\Oc1ccc(C(=O)NC(C)C)cc1)C(F)(F)F [compound 101] | 0 | 0 | –
CCOC(=O)c1cnn(Cc2cc(O/C=C(\OCC)C(F)(F)F)ccc2F)c1 [compound 302] | – | – | pest or weed control at 50 ppm (Phakopsora pachyrhizi; Phakopsora pachyrhizi, 50 ppm test suspension): 99%; pest or weed control at 50 ppm ([1]; 50 ppm test suspension): 0%
CCO/C(=C\Oc1ccc(Cn2ccc(C(=O)OC(C)C)n2)cc1)C(F)(F)F [compound 327] | 100 | 0 | –

Compound | Test A rating (disease control) (Phakopsora pachyrhizi; 10 ppm test suspension) [%] | Test B rating (disease control) ([1]; 10 ppm test suspension) [%] | also measured
CCO/C(=C\Oc1ccc(CC#N)cc1)C(F)(F)F [compound 154] | 0 | 0 | –
CCO/C(=C\Oc1ccc(CN2OCC(C)(C)C2=O)cc1)C(F)(F)F [compound 92] | 0 | 0 | –
CCO/C(=C\Oc1ccc(CN2CCC(C(=O)OC)CC2)cc1)C(F)(F)F [compound 309] | 100 | 0 | –
O=[N+]([O-])c1cccc(OCC2(C(F)(F)F)OCCO2)c1 [compound 165] | – | – | pest or weed control at 10 ppm (Phakopsora pachyrhizi; [2]): 0%; pest or weed control at 10 ppm ([1]; 10 ppm test suspension): 0%
CCOC(=O)c1cnn(Cc2ccc(C/C=C(\OCC)C(F)(F)F)cc2)c1 [compound 140] | 98 | 23 | –
C#CCOC(=O)c1cnn(Cc2cccc(O/C=C(\OCC)C(F)(F)F)c2)c1 [compound 336] | 100 | 0 | –
CCOC(=O)c1cnn(Cc2ccc(OCC(O)(O)C(F)(F)F)cc2)c1 [Compound 1, ethyl 1-[[4-(3,3,3-trifluoro-2,2-dihydroxypropoxy)phenyl]methyl]-1H-pyrazole-4-carboxylate] | – | – | pest or weed control at 250 ppm (Phakopsora pachyrhizi; Phakopsora pachyrhizi, 250 ppm test suspension): 100%; pest or weed control at 250 ppm ([1]; 250 ppm test suspension): 91%
CCOC(=O)c1csc(Cc2ccc(OCC(O)(O)C(F)(F)F)cc2)n1 [Compound 136] | 98 | 83 | –
CCOC(=O)c1cnn(Cc2ccc(O/C=C(\OCC)C(F)(F)F)cc2)n1 [compound 119] | 97 | 0 | –
N#Cc1ccc(OCC2(C(F)(F)F)OCCO2)cc1 [compound 98] | – | – | Test A rating (disease control) (Phakopsora pachyrhizi; 250 ppm test suspension): 100%; Test B rating (disease control) ([1]; 250 ppm test suspension): 100%
COC(=O)c1ccc(OCC2(C(F)(F)F)OCCO2)cc1 [compound 189] | 0 | 0 | –
CCO/C(=C\Oc1ccc(Cn2ccc(C(=O)OCCCCl)n2)cc1)C(F)(F)F [compound 362] | 100 | 0 | –
CCO/C(=C\Oc1ccc(Cn2ccc(C(=O)OC)n2)cc1)C(F)(F)F [compound 251] | 100 | 9 | –
CCO/C(=C\Oc1ccc(C(=O)NC)cc1)C(F)(F)F [compound 105] | 0 | 68 | –
CCO/C(=C\Oc1ccc(Cn2cc(C(F)(F)F)cn2)cc1)C(F)(F)F [compound 182] | 0 | 0 | –
CCO/C(=C\Oc1ccc(CSC#N)cc1)C(F)(F)F [compound 155] | 0 | 0 | –
COCCNC(=O)c1csc(Cc2ccc(OCC(O)(O)C(F)(F)F)cc2)n1 [Compound 223] | 75 | 0 | –
CS(=O)(=O)c1ccc(OCC2(C(F)(F)F)OCCO2)cc1 [compound 24] | 81 | 91 | –
